Results on 13 compounds are retold here after PubChem BioAssay AID228 (DTP/NCI, 2004).

The test system of this assay is BDF1 mice, Friend leukemia sc, tumor weight T/C. The experiment in a line: NCI In Vivo Anticancer Drug Screen. Data for tumor model Friend Virus Leukemia (Solid) (subcutaneous) in B6D2F1 (BDF1) mice. The following applies: endpoint: mean tumor weight, higher = larger tumour. On the procedure:
The antitumor activity of compounds was measured in mice bearing transplantable tumors. Survival or tumor size were measured and the results are expressed as the measurement made in the treated group (T) divided by the measurement made in the vehicle treated control group (C). The tumor model used in this assay is Friend Virus Leukemia (Solid) (subcutaneous) in B6D2F1 (BDF1) mice

The mark [1] stands for this setting: dose: 100.0 mg/kg/injection, schedule: Q01DX011 (ip), vehicle: saline.
Where [2] appears, read: dose: 1.25 mg/kg/injection, schedule: Q01DX011 (ip), vehicle: carboxymethylcellulose (CMC).
Setting [3] is: dose: 2.5 mg/kg/injection, schedule: Q01DX011 (ip), vehicle: carboxymethylcellulose (CMC).
[4] abbreviates: dose: 10.0 mg/kg/injection, schedule: Q01DX011 (ip), vehicle: carboxymethylcellulose (CMC).
Setting [5] is: dose: 50.0 mg/kg/injection, schedule: Q01DX011 (ip), vehicle: saline.

Molecules are shown by their SMILES. Values joined by “and” are separate entries in the source; they are usually repeats but may differ in a detail not shown here. Equal values may be shown once. Results filed as inconclusive are left out.

Take `CCCCSc1ncnc2nc[nH]c12`: the T/C (dose: 16.0 mg/kg/injection, schedule: Q01DX011 (ip), vehicle: saline) is 101 % of control; the T/C (dose: 31.0 mg/kg/injection, schedule: Q01DX011 (ip), vehicle: saline) was 121 % of control; the T/C (dose: 62.0 mg/kg/injection, schedule: Q01DX011 (ip), vehicle: saline) was 99 % of control; the T/C (dose: 125.0 mg/kg/injection, schedule: Q01DX011 (ip), vehicle: saline) was 62 % of control.
With `COC(=O)/C=C\C(=O)O` (tested in a mixture with another compound), the T/C (dose: 14.0 mg/kg/injection, schedule: Q#A X022 (ip), vehicle: carboxymethylcellulose (CMC)) was 88 % of control; the T/C (dose: 28.0 mg/kg/injection, schedule: Q#A X022 (ip), vehicle: carboxymethylcellulose (CMC)) was 92 % of control; the T/C (dose: 31.0 mg/kg/injection, schedule: Q#A X022 (ip), vehicle: carboxymethylcellulose (CMC)) was 68 % of control; the T/C (dose: 56.0 mg/kg/injection, schedule: Q#A X022 (ip), vehicle: carboxymethylcellulose (CMC)) was 49 % of control; the T/C (dose: 62.5 mg/kg/injection, schedule: Q#A X022 (ip), vehicle: carboxymethylcellulose (CMC)) was 36 % of control.
As to `COS(C)(=O)=O`, the T/C (dose: 9.0 mg/kg/injection, schedule: Q01DX011 (ip), vehicle: carboxymethylcellulose (CMC)) was 167 % of control; the T/C (dose: 9.37 mg/kg/injection, schedule: Q01DX011 (ip), vehicle: saline) is 116 % of control; the T/C (dose: 18.0 mg/kg/injection, schedule: Q01DX011 (ip), vehicle: carboxymethylcellulose (CMC)) is 98 % of control; the T/C (dose: 18.75 mg/kg/injection, schedule: Q01DX011 (ip), vehicle: saline) was 114 % of control; the T/C (dose: 37.5 mg/kg/injection, schedule: Q01DX011 (ip), vehicle: saline) was 85 % of control; the T/C (dose: 75.0 mg/kg/injection, schedule: Q01DX011 (ip), vehicle: saline) is 76 % of control. In addition, under setting [1], the T/C is 69 % of control.
As for `CO/[N+]([O-])=C\C(=O)N/C=C/C(=O)O`, the T/C was 103 % of control under setting [2]; 105 % of control under setting [3]; 61 % of control under setting [4]; 53 % of control (dose: 15.0 mg/kg/injection, schedule: Q01DX011 (ip), vehicle: carboxymethylcellulose (CMC)); 52 % of control (dose: 25.0 mg/kg/injection, schedule: Q01DX011 (ip), vehicle: carboxymethylcellulose (CMC)).
In the case of `CC/C(=C(\CC)c1ccc(OC)cc1)c1ccc(O)cc1`, the T/C by setting is: (dose: 3.0 mg/kg/injection, schedule: Q01DX011 (sc), vehicle: steriod suspending solution) 69 % of control; (dose: 7.0 mg/kg/injection, schedule: Q01DX011 (sc), vehicle: steriod suspending solution) 101 % of control; (dose: 15.0 mg/kg/injection, schedule: Q01DX011 (sc), vehicle: steriod suspending solution) 79 % of control; (dose: 30.0 mg/kg/injection, schedule: Q01DX011 (sc), vehicle: steriod suspending solution) 55 % of control; (dose: 240.0 mg/kg/injection, schedule: Q01DX011 (sc), vehicle: steriod suspending solution) 65 % of control; (dose: 480.0 mg/kg/injection, schedule: Q01DX011 (sc), vehicle: steriod suspending solution) 63 % of control. For the same compound, the T/C was 62 % of control (dose: 960.0 mg/kg/injection, schedule: Q01DX011 (sc), vehicle: steriod suspending solution) and 63 % of control (dose: 1920.0 mg/kg/injection, schedule: Q01DX011 (sc), vehicle: steriod suspending solution).
`O=C1C=Cc2ccc(O)cc2C1=O`: the T/C under setting [2] is 108 % of control, the T/C under setting [3] was 83 % of control and the T/C under setting [4] was 102 % of control.
As to `CC1CCOS(=O)O1` (stereo unspecified), the T/C reads like this: under setting [4], 123 % of control; (dose: 20.0 mg/kg/injection, schedule: Q01DX011 (ip), vehicle: carboxymethylcellulose (CMC)) 84 % of control; (dose: 40.0 mg/kg/injection, schedule: Q01DX011 (ip), vehicle: carboxymethylcellulose (CMC)) 72 % of control; (dose: 80.0 mg/kg/injection, schedule: Q01DX011 (ip), vehicle: carboxymethylcellulose (CMC)) 32 % of control.
As to `CC(/C=N/N=C(N)N)=N\N=C(N)N`, the T/C (dose: 12.5 mg/kg/injection, schedule: Q01DX011 (ip), vehicle: saline) was 155 % of control; the T/C (dose: 25.0 mg/kg/injection, schedule: Q01DX011 (ip), vehicle: saline) is 190 % of control; the T/C under setting [5] was 169 % of control.
Take `CSc1ncc(Br)c(Sc2nc(N)nc3nc[nH]c23)n1`: the T/C is 92 % of control (dose: 3.12 mg/kg/injection, schedule: Q01DX011 (ip), vehicle: carboxymethylcellulose (CMC)); 81 % of control (dose: 6.25 mg/kg/injection, schedule: Q01DX011 (ip), vehicle: carboxymethylcellulose (CMC)); 51 % of control (dose: 12.5 mg/kg/injection, schedule: Q01DX011 (ip), vehicle: carboxymethylcellulose (CMC)).
On to `Nc1nc(N)c2[nH]cnc2n1`, for which the T/C reads like this: (dose: 11.0 mg/kg/injection, schedule: Q01DX011 (ip), vehicle: carboxymethylcellulose (CMC)) 109 % of control; (dose: 22.0 mg/kg/injection, schedule: Q01DX011 (ip), vehicle: carboxymethylcellulose (CMC)) 92 % of control; (dose: 44.0 mg/kg/injection, schedule: Q01DX011 (ip), vehicle: carboxymethylcellulose (CMC)) 87 % of control; (dose: 88.0 mg/kg/injection, schedule: Q01DX011 (ip), vehicle: carboxymethylcellulose (CMC)) 66 % of control and 85 % of control.
On to `CCC[CH2][Sn]1([CH2]CCC)[O]C(=O)C[S]1`, for which the T/C is, setting by setting: (dose: 0.62 mg/kg/injection, schedule: Q01DX011 (ip), vehicle: carboxymethylcellulose (CMC)) 98 % of control; under setting [2], 68 % of control.
`COc1ccc2c(c1OC)C(=O)O[C@@H]2[C@H]1c2c(cc3c(c2OC)OCO3)CCN1C`: the T/C by setting is: under setting [5], 110 % of control; under setting [1], 99 % of control; (dose: 200.0 mg/kg/injection, schedule: Q01DX011 (ip), vehicle: saline) 85 % of control.
For the compound `N[C@@H](Cc1ccc(N(CCCl)CCCl)cc1)C(=O)O`, the T/C under setting [2] is 84 % of control; the T/C under setting [3] is 50 % of control; the T/C (dose: 3.75 mg/kg/injection, schedule: Q01DX011 (ip), vehicle: carboxymethylcellulose (CMC)) was 53 % of control; the T/C (dose: 4.0 mg/kg/injection, schedule: Q01DX011 (ip), vehicle: carboxymethylcellulose (CMC)) was 35 % of control; the T/C (dose: 5.0 mg/kg/injection, schedule: Q01DX011 (ip), vehicle: carboxymethylcellulose (CMC)) was 35 % of control.
